Target: T1, JAK3 (Homo sapiens, UniProt P52333)
T1 construct: endogenous in cells; host or cells: mixed Molt4/Ramos lysate (1:2)
T1 sequence (P52333 1-1124): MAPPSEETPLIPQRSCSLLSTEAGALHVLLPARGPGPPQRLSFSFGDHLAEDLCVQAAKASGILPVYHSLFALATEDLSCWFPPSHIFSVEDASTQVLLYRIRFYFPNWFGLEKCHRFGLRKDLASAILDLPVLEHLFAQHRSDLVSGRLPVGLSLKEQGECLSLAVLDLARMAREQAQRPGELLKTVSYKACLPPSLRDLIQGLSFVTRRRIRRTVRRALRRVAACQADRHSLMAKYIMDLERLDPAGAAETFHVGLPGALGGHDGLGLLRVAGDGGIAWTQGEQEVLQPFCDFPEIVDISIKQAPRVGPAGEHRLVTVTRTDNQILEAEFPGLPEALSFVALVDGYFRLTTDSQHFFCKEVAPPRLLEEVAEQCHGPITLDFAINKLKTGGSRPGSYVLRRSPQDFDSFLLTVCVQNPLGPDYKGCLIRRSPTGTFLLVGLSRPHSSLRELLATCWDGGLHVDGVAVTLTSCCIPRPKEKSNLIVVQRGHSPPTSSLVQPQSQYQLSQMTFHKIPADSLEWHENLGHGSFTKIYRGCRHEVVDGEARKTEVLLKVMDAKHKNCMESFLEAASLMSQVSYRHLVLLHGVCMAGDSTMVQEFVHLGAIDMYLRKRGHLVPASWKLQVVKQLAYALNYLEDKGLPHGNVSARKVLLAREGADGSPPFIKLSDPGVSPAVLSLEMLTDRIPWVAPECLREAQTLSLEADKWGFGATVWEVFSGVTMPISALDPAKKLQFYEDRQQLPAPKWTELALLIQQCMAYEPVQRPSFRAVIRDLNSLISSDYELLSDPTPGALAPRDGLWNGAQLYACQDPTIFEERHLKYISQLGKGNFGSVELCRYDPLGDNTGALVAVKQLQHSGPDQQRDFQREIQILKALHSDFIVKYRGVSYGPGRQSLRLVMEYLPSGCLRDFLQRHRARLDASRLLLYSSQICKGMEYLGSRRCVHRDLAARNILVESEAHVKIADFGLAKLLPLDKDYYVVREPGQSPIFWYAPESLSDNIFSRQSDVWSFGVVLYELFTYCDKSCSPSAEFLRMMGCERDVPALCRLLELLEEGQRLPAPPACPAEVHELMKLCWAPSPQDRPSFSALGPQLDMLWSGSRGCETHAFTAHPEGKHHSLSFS
Experiment: Kinobeads assay, JAK3
Format: binding
Settings: mixed Molt4/Ramos lysate, read-out: Inhibition values (IC50) JAK3
In short: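 IC50 values come from dose-response curves of JAK2/JAK3 captured on immobilized aminopyrido-pyrimidine beads, quantified by antibody dot blot with infrared read-out. Compounds (1:3 series, 9 steps, from 5 mM DMSO stock) competed for 3 h in the cold with mixed Molt4/Ramos lysate (1:2, 10 mg/mL protein).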

SMILES | IC50
CN(C)CCCn1cc(Nc2ncc3cnn(Cc4c(F)c(F)cc(N5CCOCC5)c4F)c3n2)cn1 [Example 42, N-(1-(3-(Dimethylamino)propyl)-1H-pyrazol-4-yl)-1-(2,3,6-trifluoro-5-morpholinobenzyl)-1H-pyrazolo[3,4-d]pyrimidin-6-amine] | < 0.1 µM
CN(C)CCCn1cc(Nc2ncc3cnn(Cc4cccc(N5CCOCC5)c4F)c3n2)cn1 [Example 43, N-(1-(3-(Dimethylamino)propyl)-1H-pyrazol-4-yl)-1-(2-fluoro-3-morpholinobenzyl)-1H-pyrazolo[3,4-d]pyrimidin-6-amine] | < 0.1 µM
OCCn1cc(Nc2ncc3cnn(Cc4cc(N5CCOCC5)ccc4F)c3n2)cn1 [Example 44, 2-(4-((1-(2-Fluoro-5-morpholinobenzyl)-1H-pyrazolo[3,4-d]pyrimidin-6-yl)amino)-1H-pyrazol-1-yl)ethanol] | < 0.1 µM
OCCn1cc(Nc2ncc3cnn(Cc4c(F)c(F)cc(N5CCOCC5)c4F)c3n2)cn1 [Example 45, 2-(4-((1-(2,3,6-Trifluoro-5-morpholinobenzyl)-1H-pyrazolo[3,4-d]pyrimidin-6-yl)amino)-1H-pyrazol-1-yl)ethanol] | < 0.1 µM
O=C1COCCN1c1cccc(Cn2ncc3cnc(Nc4cnn(CCO)c4)nc32)c1F [Example 46, 4-(2-Fluoro-3-((6-((1-(2-hydroxyethyl)-1H-pyrazol-4-yl)amino)-1H-pyrazolo[3,4-d]pyrimidin-1-yl)methyl)phenyl)morpholin-3-one] | < 0.1 µM
OCCn1cc(Nc2ncc3cnn(Cc4cccc(N5CCNCC5)c4)c3n2)cn1 [Example 47, 2-(4-((1-(3-(piperazin-1-yl)benzyl)-1H-pyrazolo[3,4-d]pyrimidin-6-yl)amino)-1H-pyrazol-1-yl)ethanol] | < 0.1 µM
c1cc(Cn2ncc3cnc(Nc4cnn(CC5CCCNC5)c4)nc32)cc(N2CCOCC2)c1 (centres unmarked) [Example 48, 1-(3-Morpholinobenzyl)-N-(1-(piperidin-3-ylmethyl)-1H-pyrazol-4-yl)-1H-pyrazolo[3,4-d]pyrimidin-6-amine] | < 0.1 µM
Cn1cc(Nc2ncc3cnn(Cc4cc(F)cc(N5CCOCC5)c4)c3n2)cn1 [Example 49, 1-(3-Fluoro-5-morpholinobenzyl)-N-(1-methyl-1H-pyrazol-4-yl)-1H-pyrazolo[3,4-d]pyrimidin-6-amine] | < 0.1 µM
CN(C)CCCn1cc(Nc2ncc3cnn(Cc4cccc(N5CCOCC5=O)c4F)c3n2)cn1 [Example 50, 4-(3-((6-((1-(3-(Dimethylamino)propyl)-1H-pyrazol-4-yl)amino)-1H-pyrazolo[3,4-d]pyrimidin-1-yl)methyl)-2-fluorophenyl)morpholin-3-one] | < 0.1 µM
OCCn1cc(Nc2ncc3cnn(Cc4cc(F)cc(N5CCOCC5)c4)c3n2)cn1 [Example 51, 2-(4-((1-(3-Fluoro-5-morpholinobenzyl)-1H-pyrazolo[3,4-d]pyrimidin-6-yl)amino)-1H-pyrazol-1-yl)ethanol] | < 0.1 µM
Cn1cc(Nc2ncc3cnn(Cc4cc(F)cc(N5CCOCC5=O)c4)c3n2)cn1 [Example 52, 4-(3-Fluoro-5-((6-((1-methyl-1H-pyrazol-4-yl)amino)-1H-pyrazolo[3,4-d]pyrimidin-1-yl)methyl)phenyl)morpholin-3-one] | < 0.1 µM
Cn1cc(Nc2ncc3cnn(Cc4cc(N5CCOCC5=O)cc(F)c4F)c3n2)cn1 [Example 53, 4-(3,4-Difluoro-5-((6-((1-methyl-1H-pyrazol-4-yl)amino)-1H-pyrazolo[3,4-d]pyrimidin-1-yl)methyl)phenyl)morpholin-3-one] | < 0.1 µM
Cn1cc(Nc2ncc3cnn(Cc4cccc(N5CCNCC5=O)c4F)c3n2)cn1 [Example 54, 1-(2-Fluoro-3-((6-((1-methyl-1H-pyrazol-4-yl)amino)-1H-pyrazolo[3,4-d]pyrimidin-1-yl)methyl)phenyl)piperazin-2-one] | < 0.1 µM
O=C1CNCCN1c1cccc(Cn2ncc3cnc(Nc4cnn(CCO)c4)nc32)c1F [Example 55, 1-(2-Fluoro-3-((6-((1-(2-hydroxyethyl)-1H-pyrazol-4-yl)amino)-1H-pyrazolo[3,4-d]pyrimidin-1-yl)methyl)phenyl)piperazin-2-one] | < 0.1 µM

Reference: US9040545B2, “Heterocyclyl pyrazolopyrimidine analogues as selective JAK inhibitors” (Cellzome Limited, priority 2010, dated 2015)
